In brackets after ≈: the same amount, converted by molar mass. Read-outs that look alike come from different tables or passages of the source.
Assays:
P. aeruginosa = test: Antibiotic susceptibility (MIC, Sensititre Trays) with rBPI21 poloxamer formulations; type: cell-based; conditions: for MIC: Pseudomonas aeruginosa, read-out: Minimum Inhibitory Concentration
Description: (§1) The effect of therapeutic compositions of rBPI21 formulated with poloxamer, with or without EDTA, was evaluated on the antibiotic susceptibility of the multiple drug resistant A. baumannii, S. pneumoniae, E. faecium and P. aeruginosa organisms of Example 5. Therapeutic compositions were prepared containing 2 mg/mL rBPI21, (5 mM sodium citrate, 150 mM NaCl) with a 0.2% (w/v) concentration of PLURONIC F68, P103, P104, P105 or P123. The effect on the antibiotic susceptibility of the organisms was determined in Mueller-Hinton Broth plus Cations (CSMHB, Remel), or 40% pooled human serum in CSMHB (Sigma, St. Louis, Mo.), as follows.
(§2) Isolated colonies of the organism from overnight cultures were suspended in Microscan® Inoculum Water to a concentration equivalent to a 0.5 McFarland Standard (approximately 1×10^8 CFU/ml), determined using a Microscan® turbidimeter. Aliquots were transferred to either CSMHB or 40% pooled human serum in CSMHB. Each tube contained either a final concentration of 16 μg/mL rBPI21 or an equivalent volume of control buffer. Minimal inhibitory concentrations (MIC) for each antibiotic tested, i.e. the lowest concentration of antibiotic which inhibits visible growth, were determined using gram-negative (MB and MC) and gram-positive (MA) Sensititre Trays (Radiometer America, Westlake, Ohio), which allow for the rapid and simultaneous survey of a broad spectrum of standard antibiotics. Any other antimicrobial panel systems known in the art, such as the Microscan® (Dade Microscan, Sacramento, Calif.), Pasco (DIFCO, Detroit, Mich.) and Alamar (Alamar, Sacramento, Calif.) systems, may alternatively be used to assay for antibiotic susceptibility.
(§3) Tables 12-15 below display a summary of the results of the antibiotic screening panels, reported for each strain tested as the MIC of the tested antibiotics in the presence of the indicated rBPI21 therapeutic composition. The antibiotic susceptibility standards (interpretation of an MIC as clinically resistant (R), intermediate (I) or susceptible (S) according to NCCLS standards) applicable to the organism tested appear in superscript next to the MIC.

A. baumannii = test: as above; type: cell-based; conditions: for MIC: Acinetobacter baumannii, read-out: Minimum Inhibitory Concentration
Description: as §1, §2, §3

[1] = CSMHB, 16 μg/mL rBPI21 with F68
[2] = CSMHB, 16 μg/mL rBPI21 with P103
[3] = CSMHB, 16 μg/mL rBPI21 with P104
[4] = CSMHB, 16 μg/mL rBPI21 with P105
[5] = CSMHB, 16 μg/mL rBPI21 with P123
[6] = Serum, 16 μg/mL rBPI21 with F68
[7] = Serum, 16 μg/mL rBPI21 with P103
[8] = Serum, 16 μg/mL rBPI21 with P104
[9] = Serum, 16 μg/mL rBPI21 with P105
[10] = Serum, 16 μg/mL rBPI21 with P123

For `CO/N=C(\C(=O)N[C@@H]1C(=O)N2C(C(=O)O)=CCS[C@H]12)c1csc(N)n1` [Ceftizoxime], the “susceptibility interpretation of MIC (superscript)” value (shortened to “susceptibility interpretation”) (P. aeruginosa; [1]) was “I”, the “susceptibility interpretation” value (P. aeruginosa; [2]) was “I” and the “susceptibility interpretation” value (P. aeruginosa; [3]) was “R”. For the same molecule, the “susceptibility interpretation” value (P. aeruginosa; [4]) was “I”, the “susceptibility interpretation” value (P. aeruginosa; [5]) was “R” and the “susceptibility interpretation” value (P. aeruginosa; CSMHB, Control (no BPI)) was “R”. For the same molecule, the MIC (P. aeruginosa; [1]) was 32 µg/mL (≈ 83.5 µM), the MIC (P. aeruginosa; [2]) was 16 µg/mL (≈ 41.7 µM) and the MIC (P. aeruginosa; [3]) was 128 µg/mL (≈ 334 µM). The MIC (P. aeruginosa; [4]) was 32 µg/mL (≈ 83.5 µM), the MIC (P. aeruginosa; [5]) was 128 µg/mL (≈ 334 µM) and the MIC (P. aeruginosa; CSMHB, Control (no BPI)) was greater than 128 µg/mL. For the same molecule, the MIC (P. aeruginosa; [6]) was greater than 128 µg/mL, the MIC (P. aeruginosa; [7]) was 16 µg/mL (≈ 41.7 µM) and the MIC (P. aeruginosa; [8]) was 128 µg/mL (≈ 334 µM). The MIC (P. aeruginosa; [9]) was 16 µg/mL (≈ 41.7 µM), the MIC (P. aeruginosa; [10]) was 16 µg/mL (≈ 41.7 µM) and the MIC (P. aeruginosa; Serum, Control (no BPI)) was 128 µg/mL (≈ 334 µM). For the same molecule, the “susceptibility interpretation” value (P. aeruginosa; [6]) was “R”, the “susceptibility interpretation” value (P. aeruginosa; [7]) was “I” and the “susceptibility interpretation” value (P. aeruginosa; [8]) was “R”. The “susceptibility interpretation” value (P. aeruginosa; [9]) was “I”, the “susceptibility interpretation” value (P. aeruginosa; [10]) was “I” and the “susceptibility interpretation” value (P. aeruginosa; Serum, Control (no BPI)) was “R”.

In the case of `CO/N=C(\C(=O)N[C@@H]1C(=O)N2C(C(=O)O)=C(CSc3nc(=O)c(=O)[nH]n3C)CS[C@H]12)c1csc(N)n1` [Ceftriaxone], the “susceptibility interpretation” value (P. aeruginosa; [1]) is reported as “I”, the “susceptibility interpretation” value (P. aeruginosa; [2]) is reported as “S” and the “susceptibility interpretation” value (P. aeruginosa; [3]) is reported as “R”. For the same molecule, the “susceptibility interpretation” value (P. aeruginosa; [4]) was “I”, the “susceptibility interpretation” value (P. aeruginosa; [5]) was “R” and the “susceptibility interpretation” value (P. aeruginosa; CSMHB, Control (no BPI)) was “R”. For the same molecule, the MIC (P. aeruginosa; [1]) was 32 µg/mL (≈ 57.7 µM), the MIC (P. aeruginosa; [2]) was 8 µg/mL (≈ 14.4 µM) and the MIC (P. aeruginosa; [3]) was 128 µg/mL (≈ 231 µM). For the same molecule, the MIC (P. aeruginosa; [4]) was 32 µg/mL (≈ 57.7 µM), the MIC (P. aeruginosa; [5]) was 128 µg/mL (≈ 231 µM) and the MIC (P. aeruginosa; CSMHB, Control (no BPI)) was greater than 128 µg/mL. For the same molecule, the MIC (P. aeruginosa; [6]) was greater than 128 µg/mL, the MIC (P. aeruginosa; [7]) was 16 µg/mL (≈ 28.9 µM) and the MIC (P. aeruginosa; [8]) was 128 µg/mL (≈ 231 µM). The MIC (P. aeruginosa; [9]) was 16 µg/mL (≈ 28.9 µM), the MIC (P. aeruginosa; [10]) was 32 µg/mL (≈ 57.7 µM) and the MIC (P. aeruginosa; Serum, Control (no BPI)) was 128 µg/mL (≈ 231 µM). For the same molecule, the “susceptibility interpretation” value (P. aeruginosa; [6]) was “R”, the “susceptibility interpretation” value (P. aeruginosa; [7]) was “I” and the “susceptibility interpretation” value (P. aeruginosa; [8]) was “R”. For the same molecule, the “susceptibility interpretation” value (P. aeruginosa; [9]) was “I”, the “susceptibility interpretation” value (P. aeruginosa; [10]) was “I” and the “susceptibility interpretation” value (P. aeruginosa; Serum, Control (no BPI)) was “R”. For the same molecule, the MIC (A. baumannii; [1]) was greater than 128 µg/mL, the MIC (A. baumannii; [2]) was less than 1 µg/mL and the MIC (A. baumannii; [3]) was less than 1 µg/mL. The MIC (A. baumannii; [4]) was less than 1 µg/mL, the MIC (A. baumannii; [5]) was less than 1 µg/mL and the MIC (A. baumannii; CSMHB, Control (no BPI)) was 128 µg/mL (≈ 231 µM). For the same molecule, the MIC (A. baumannii; [6]) was greater than 128 µg/mL, the MIC (A. baumannii; [7]) was greater than 128 µg/mL and the MIC (A. baumannii; [8]) was greater than 128 µg/mL. For the same molecule, the MIC (A. baumannii; [9]) was greater than 128 µg/mL, the MIC (A. baumannii; [10]) was greater than 128 µg/mL and the MIC (A. baumannii; Serum, Control (no BPI)) was greater than 128 µg/mL. For the same molecule, the “susceptibility interpretation” value (A. baumannii; [1]) was “R”, the “susceptibility interpretation” value (A. baumannii; [2]) was “S” and the “susceptibility interpretation” value (A. baumannii; [3]) was “S”. The “susceptibility interpretation” value (A. baumannii; [4]) was “S”, the “susceptibility interpretation” value (A. baumannii; [5]) was “S” and the “susceptibility interpretation” value (A. baumannii; CSMHB, Control (no BPI)) was “R”. The “susceptibility interpretation” value (A. baumannii; [6]) was “R”, the “susceptibility interpretation” value (A. baumannii; [7]) was “R” and the “susceptibility interpretation” value (A. baumannii; [8]) was “R”. For the same molecule, the “susceptibility interpretation” value (A. baumannii; [9]) was “R”, the “susceptibility interpretation” value (A. baumannii; [10]) was “R” and the “susceptibility interpretation” value (A. baumannii; Serum, Control (no BPI)) was “R”.

From patent US6849598B1, “Therapeutic compositions comprising bactericidal/permeability-increasing (BPI) protein products” (XOMA, priority 1995, dated 2005)
